Test results: ChEMBL document CHEMBL5046222, “Multifunctional Arylsulfone and Arylsulfonamide-Based Ligands with Prominent Mood-Modulating Activity and Benign Safety Profile, Targeting Neuropsychiatric Symptoms of Dementia” (J Med Chem, 2021)

Assays:
[1] = target: 5-hydroxytryptamine receptor 6 (Homo sapiens) (UniProt P50406); conditions: CHO-K1, filed as antagonist, time 1.0 hrs
[2] = species on record: Rattus norvegicus; conditions: in vivo, ip, 10 min
[3] = species on record: Rattus norvegicus; assay: animal or person; conditions: Wistar, ip, read-out: MED

5-hydroxytryptamine receptor 6 (Homo sapiens), sequence (P50406 whole entry): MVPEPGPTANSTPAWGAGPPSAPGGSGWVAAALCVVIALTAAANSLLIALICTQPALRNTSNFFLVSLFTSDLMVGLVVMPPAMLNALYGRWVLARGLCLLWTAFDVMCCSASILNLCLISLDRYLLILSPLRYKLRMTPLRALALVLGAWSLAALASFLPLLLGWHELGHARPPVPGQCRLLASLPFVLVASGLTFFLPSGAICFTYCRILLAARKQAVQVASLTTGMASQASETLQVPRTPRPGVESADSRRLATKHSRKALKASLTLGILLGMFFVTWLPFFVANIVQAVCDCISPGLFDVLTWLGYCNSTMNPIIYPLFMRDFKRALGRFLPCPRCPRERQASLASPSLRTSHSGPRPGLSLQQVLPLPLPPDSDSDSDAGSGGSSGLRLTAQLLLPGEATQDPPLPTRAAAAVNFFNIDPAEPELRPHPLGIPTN

Structure (SMILES)	pKb [1]	MED [2] [mg/kg]	minimal effective dose [3] [mg/kg]
O=S(=O)(c1ccccc1)c1cnc2c(N3CCNCC3)cccc2c1	9.47	–	–
O=C1CC2(CCCC2)CC(=O)N1CCCCN1CCN(c2ncccn2)CC1 [BUSPIRONE]	–	1	–
CN1C(=O)CN=C(c2ccccc2)c2cc(Cl)ccc21 [DIAZEPAM]	–	3	–
CN(C)CCCN1c2ccccc2CCc2ccccc21 [IMIPRAMINE]	–	10	–
CC(C)COc1ccc(CNC(=O)N(Cc2ccc(F)cc2)C2CCN(C)CC2)cc1 [PIMAVANSERIN]	–	0.1	0.1
